Data from patent EP0432677B1, “N-(pyrrolo[2,3-d]pyrimidin-3-ylacyl)-glutamic acid derivatives” (THE TRUSTEES OF PRINCETON UNIVERSITY, priority 1989, dated 1991).
In brackets after ≈: the same amount, converted by molar mass. Entries after “also recorded” stand apart in the source; their conditions may differ. Each block holds one compound with its values, some of them ahead of it.

Tests used:
[1] = tested on: CCRF-CEM; assay: Representative inhibition values against CCRF-CEM cell cultures; format: cell-based; conditions: Homo sapiens
[2] = tested on: CCRF-CEM; assay: Reversal of cytotoxicity by added metabolites (hypoxanthine, AICA, thymidine, leucovorin); format: cell-based, human
[3] = tested on: tumor cells; assay: In vivo antitumor activity in mice inoculated with tumor cells, eight daily i.p. doses; set-up: species or system strain DBA/2; conditions: for % Inhibition / Tumor Weight: eight daily doses; for Tumor Weight: mean ± standard deviation; for inhibitory effect on tumor growth in vivo: overall assessment in words
Description: Female mice, strain DBA/2, were inoculated with tumor cells. Treatment with the test compounds began the day following inoculation. The treatment consisted of eight daily doses i.p. (intraperitoneal) of either Compounds A and C for eight consecutive days. Tumor size was measured on the day following the last day of treatment to determine the inhibitory effect of the test compounds on tumor growth.

[4] = tested on: Cem human lymphoblastic leukemia cells; assay: Reversal studies to identify the point of enzymatic inhibition (Example 11); format: cell-based; conditions: from reversal with 100 µM hypoxanthine and/or 5 µM thymidine
Description: The mechanism of action of each compound was determined through further tests employing so-called "reversal" studies. These studies supplied compounds or precursors which, alone or together, identified the specific point of enzymatic inhibition. • (a) Hypoxanthine - Hypoxanthine will reverse the inhibitory effects of a compound if the compound functions as an inhibitor of purine de novo synthesis. The availability of hypoxanthine thus allows cells to bypass purine de novo synthesis. • (b) Thymidine - Thymidine alone will reverse the inhibitory effects of a compound if the compound functions as a specific inhibitor of thymidylate synthetase. • (c) Hypoxanthine and Thymidine - If a compound is determined in (a) to not be an inhibitor of purine de novo synthesis, and in (b) to not be an inhibitor of thymidilate synthetase, then a reversal study utilizing hypoxanthine and thymidine, in combination, will determine whether the compound can produce inhibition of both pathways. Thus if this combination reverses the inhibitory effects of a compound, the compound most likely functions as an inhibitor of dihydrofolate reductase (involved in both purine and pyrimidine biosynthesis).
In each case, the basic procedure outlined above was followed, modified in that 250 µl of the reversal compound [or of each reversal compound in […]] was added to the test wells, and the amount of serumless media added to each test well was decreased [or entirely eliminated in (b)] by the same amount. The reversal compounds were prepared as 8X stock solutions in phosphate buffered saline (sterile filtered through a 0.2 µ acrodisc filter - Gelman) so that 250 µl of the stock solution would yield a final concentration of 100 µM hypoxanthine and/or 5 µM thymidine.

[5] = tested on: Cem human lymphoblastic leukemia cells; assay: Inhibition of growth of Cem human lymphoblastic leukemia cells, 72 hours incubation, Coulter Counter particle count (Example 11); format: cell-based; conditions: for activity at 0.045 µg/mL: concentration 0.045 µg/ml; for activity at 0.137 µg/mL: concentration 0.137 µg/ml; for activity at 0.411 µg/mL: concentration 0.411 µg/ml; for activity at 1.23 µg/mL: concentration 1.23 µg/ml; for activity at 3.7 µg/mL: concentration 3.7 µg/ml; for activity at 11.1 µg/mL: concentration 11.1 µg/ml; for activity at 33.3 µg/mL: concentration 33.3 µg/ml; for activity at 100 µg/mL: concentration 100.0 µg/ml; for IC50: concentration inhibiting 50% of cellular growth, read-out: relative overall in vitro inhibitory concentration (IC50); for activity at 0.015 µg/mL: concentration 0.015 µg/ml
Description: Each of the compounds was dissolved in 100% dimethylsulfoxide. Dilutions of each compound were prepared to yield a range of test concentrations as hereinafter indicated.
Cem human lymphoblastic leukemia cells are grown in RPMI 1640 media (MABio), supplemented with 10% dialyzed fetal bovine serum (Gibco) at 37°C in humidified atmospheric conditions of 95% air and 5% CO₂. The cells are grown in static suspension (T-flask, Corning) maintained in log phase at a concentration of 3-7 x 10⁵ cells/ml.
(i) 10 µl of a test compound is placed in a well (Costar 24 well clusters). This step is repeated for each test concentration of the compounds. (ii) 500 µl of serum-free media is added to each well. (iii) A sterile bottle containing RPMI 1640 media supplemented with 10% dialyzed fetal bovine serum, 16 mM hepes and 8 mM mops buffers and 3 x 10⁴ cells/ml is placed on a magnetic stirrer. A Wheaton peristaltic pump is used to deliver 1.5 ml of this cell suspension to each well. The resulting final volume delivered to each well is 2.0 ml at a cellular concentration of […]. (iv) The cluster wells are incubated at 37°C in a humidified incubator (95% air, 5% CO₂) for 72 hours. (v) After the incubation period, measurements of each well are taken using the ZB1 Coulter Counter particle counter and the IC₅₀ (concentration inhibiting 50% of cellular growth) is determined. (vi) The results of this test are as follows: Table I

[6] = Homo sapiens, CCRF-CEM, 72 hours, read-out: Cellular Growth (%)
[7] = Homo sapiens, CCRF-CEM, 72 hours
[8] = Table VI Run 1, dose 12.50 mg/kg i.p.
[9] = Table VI Run 1, dose 25.00 mg/kg i.p.
[10] = Table VI Run 1, dose 50.00 mg/kg i.p.
[11] = Table VI Run 1, dose 100.00 mg/kg i.p.
[12] = Table VI Run 1, dose 200.00 mg/kg i.p.
[13] = Table VI Run 2, dose 0.6256 mg/kg i.p.
[14] = Table VI Run 2, dose 1.25 mg/kg i.p.
[15] = Table VI Run 2, dose 5 mg/kg i.p.
[16] = Table VI Run 2, dose 10 mg/kg i.p.
[17] = Table VI Run 2, dose 20 mg/kg i.p.
[18] = Table VI Run 2, dose 40 mg/kg i.p.

- IC50 [1]: > 20 mg/L
SMILES: Nc1nc(O)c2c(CCc3ccc(C(=O)O)cc3)c[nH]c2n1

- IC50 [1]: 0.008 mg/L (≈ 0.018 µM)
SMILES: Nc1nc(O)c2c(CCc3ccc(C(=O)N[C@@H](CCC(=O)O)C(=O)O)c(F)c3)c[nH]c2n1

- IC50 [1]: 0.019 mg/L (≈ 0.0427 µM)
SMILES: Nc1nc(O)c2c(CCc3ccc(C(=O)N[C@@H](CCC(=O)O)C(=O)O)cc3F)c[nH]c2n1

- IC50 [1]: > 20 mg/L
SMILES: COc1ccc(CCc2c[nH]c3nc(N)nc(O)c23)cc1 [3-[2-(4-methoxyphenyl)ethyl]-4-hydroxy-6-aminopyrrolo[2,3-d]pyrimidine]

- IC50 [1]: 0.0084 mg/L (≈ 0.0197 µM)
SMILES: Cc1nc(O)c2c(CCc3ccc(C(=O)N[C@@H](CCC(=O)O)C(=O)O)cc3)c[nH]c2n1 [N-{4-[2-(4-hydroxy-6-methylpyrrolo[2,3-d]pyrimidin-3-yl)ethyl]-benzoyl}-L-glutamic acid]

- IC50 [1]: 1.2 mg/L (≈ 2.91 µM)
SMILES: O=C(O)CC[C@H](NC(=O)c1ccc(CCc2c[nH]c3ncnc(O)c23)cc1)C(=O)O [N-{4-[2-(4-hydroxypyrrolo[2,3-d]pyrimidin-3-yl)ethyl]benzoyl}-L-glutamic acid]

Further lines, the compound ahead of its results:

SMILES: Nc1nc(O)c2c(CCc3cccc(F)c3)c[nH]c2n1
- IC50 [1]: > 20 mg/L

SMILES: Nc1nc2[nH]cc(CCc3ccc(C(=O)N[C@@H](CCC(=O)O)C(=O)O)cc3)c2c(=O)[nH]1
- IC50 [1]: 0.004 mg/L (≈ 0.00936 µM)
- Cytotoxicity reversed by addition of aminoimidazolecarboxamide (AICA) ([2]; addition of aminoimidazolecarboxamide (AICA)): not reversed
- Cytotoxicity reversed by addition of hypoxanthine ([2]; addition of hypoxanthine): not reversed
- Cytotoxicity reversed by addition of thymidine ([2]; addition of thymidine): reversed

SMILES: Nc1nc(O)c2c(n1)NCC2CCc1ccc(C(=O)NC(CCC(=O)O)C(=O)O)cc1 (stereo not drawn) [Compound A, reference compound]
- % Inhibition ([3]; Table V, dose 3.125 mg/kg i.p.): 0%
- Tumor Weight ([3]; Table V, dose 3.125 mg/kg i.p.): 2825 ± 822 mg
- % Inhibition ([3]; Table V, dose 6.25 mg/kg i.p.): 0%
- Tumor Weight ([3]; Table V, dose 6.25 mg/kg i.p.): 2719 ± 413 mg
- % Inhibition ([3]; Table V, dose 12.5 mg/kg i.p.): 0%
- Tumor Weight ([3]; Table V, dose 12.5 mg/kg i.p.): 3360 ± 703 mg
- % Inhibition ([3]; Table V, dose 25 mg/kg i.p.): 12%
- Tumor Weight ([3]; Table V, dose 25 mg/kg i.p.): 2121 ± 410 mg
- % Inhibition ([3]; Table V, dose 50 mg/kg i.p.): 19%
- Tumor Weight ([3]; Table V, dose 50 mg/kg i.p.): 1935 ± 498 mg
- % Inhibition ([3]; Table V, dose 100 mg/kg i.p.): 0%
- Tumor Weight ([3]; Table V, dose 100 mg/kg i.p.): 3447 ± 747 mg
- % Inhibition ([3]; Table V, dose 200 mg/kg i.p.): 0%
- Tumor Weight ([3]; Table V, dose 200 mg/kg i.p.): 2525 ± 694 mg
- inhibitory effect on tumor growth in vivo [3]: essentially no inhibitory effect; also recorded: inactive
- mechanism of action (point of enzymatic inhibition) [4]: appear to inhibit TS
- activity at 0.045 µg/mL [5, 6]: 100%
- activity at 0.137 µg/mL [5, 6]: 63.9%
- activity at 0.411 µg/mL [5, 6]: 21.5%
- activity at 1.23 µg/mL [5, 6]: 16.1%
- activity at 3.7 µg/mL [5, 6]: 15.3%
- activity at 11.1 µg/mL [5, 6]: 16.2%
- activity at 33.3 µg/mL [5, 6]: 15.5%
- activity at 100 µg/mL [5, 6]: 13.1%
- IC50 [5, 7]: 0.2 mg/L (≈ 0.466 µM)

SMILES: Nc1nc(O)c2c(CCCc3ccc(C(=O)NC(CCC(=O)O)C(=O)O)cc3)c[nH]c2n1 (stereo not drawn) [Compound B]
- mechanism of action (point of enzymatic inhibition) [4]: inhibition of DHFR rather than TS
- activity at 0.015 µg/mL [5, 6]: 76.9%
- activity at 0.045 µg/mL [5, 6]: 33.5%
- activity at 0.137 µg/mL [5, 6]: 17.7%
- activity at 0.411 µg/mL [5, 6]: 13%
- activity at 1.23 µg/mL [5, 6]: 11.3%
- activity at 3.7 µg/mL [5, 6]: 10.4%
- activity at 11.1 µg/mL [5, 6]: 9.6%
- activity at 33.3 µg/mL [5, 6]: 10.8%
- IC50 [5, 7]: 0.03 mg/L (≈ 0.068 µM)

SMILES: Nc1nc(O)c2c(CCc3ccc(C(=O)NC(CCC(=O)O)C(=O)O)cc3)c[nH]c2n1 (stereo not drawn) [Compound C]
- % Inhibition [3, 8]: 98%
- Tumor Weight [3, 8]: 102 ± 166 mg
- % Inhibition [3, 9]: 100%
- Tumor Weight [3, 9]: 0 ± 0 mg
- % Inhibition [3, 10]: 100%
- Tumor Weight [3, 10]: 0 ± 0 mg
- % Inhibition [3, 11]: 100%
- Tumor Weight [3, 11]: 0 ± 0 mg
- % Inhibition [3, 12]: 100%
- Tumor Weight [3, 12]: 0 ± 0 mg
- % Inhibition [3, 13]: 0%
- Tumor Weight [3, 13]: 7381 ± 2397 mg
- % Inhibition [3, 14]: 0%
- Tumor Weight [3, 14]: 6682 ± 2300 mg
- Tumor Weight ([3]; Table VI Run 2, dose 2.5 mg/kg i.p.): 2908 ± 1948 mg
- % Inhibition [3, 15]: 83%
- Tumor Weight [3, 15]: 1034 ± 657 mg
- % Inhibition [3, 16]: 97%
- Tumor Weight [3, 16]: 196 ± 152 mg
- % Inhibition [3, 17]: 100%
- Tumor Weight [3, 17]: 18 ± 57 mg
- % Inhibition [3, 18]: 100%
- Tumor Weight [3, 18]: 0 ± 0 mg
- inhibitory effect on tumor growth in vivo [3]: marked in vivo inhibitory effect; also recorded: highly active
- mechanism of action (point of enzymatic inhibition) [4]: appear to inhibit TS
- activity at 0.005 µg/mL ([5]; Homo sapiens, CCRF-CEM, concentration 0.005 µg/ml, 72 hours, read-out: Cellular Growth (%)): 96%
- activity at 0.015 µg/mL [5, 6]: 25%
- activity at 0.045 µg/mL [5, 6]: 14%
- activity at 0.137 µg/mL [5, 6]: 14%
- activity at 0.411 µg/mL [5, 6]: 13%
- activity at 1.23 µg/mL [5, 6]: 14%
- activity at 3.7 µg/mL [5, 6]: 13%
- activity at 11.1 µg/mL [5, 6]: 12%
- activity at 33.3 µg/mL [5, 6]: 12%
- activity at 100 µg/mL [5, 6]: 14%
- IC50 [5, 7]: 0.007 mg/L (≈ 0.0164 µM)
- more active in vitro than Compound A by a factor ([5]; in vitro, relative to Compound A): at least 25 fold

SMILES: Nc1nc(O)c2c(CCc3ccc(C(=O)N[C@@H](CCC(=O)O)C(=O)O)s3)c[nH]c2n1 [N-{5-[2-(4-hydroxy-6-aminopyrrolo[2,3-d]-pyrimidin-3-yl)ethyl]thien-2-ylcarbonyl}-L-glutamic acid]
- IC50 [1]: 0.025 mg/L (≈ 0.0577 µM)
